The text below walks through data of patent US7183267B2, “β-lactamase inhibitors and methods of use thereof” (priority 2003, dated 2007).

One assay has as its target β-lactamase mutant M69I (Escherichia coli, UniProt P62593, M67I). It counts as biochemical. The settings on record: number higher than 1 reflects a loss of potency against mutant. Here is the method:
(§1) The inhibition of TEM-1 β-lactamase was determined spectrophotometrically. B-lactamase activity was followed by measuring the hydrolysis of nitrocefin, [3-(2,4-dinitrostyryl)-(6R, 7R)-7-(2-thienylacetamido)-ceph-3-em-4-carboxylic acid, E-isomer], (Calbiochem, San Diego, Calif., USA) at 486 nm. Inhibition assays were performed at 25° C. in 50 mM sodium phosphate, 5% DMSO, pH 7.0. […] Inhibitor was added to the enzyme and incubated for ten minutes before the addition of substrate. Inhibition constants (Ki) for the inhibitors are obtained at the desired temperature and solvent conditions by measuring the rate of substrate hydrolysis at increasing amounts of inhibitors.
(§2) Three of the most important mutations are M69I, R244S and E104K.

The next assay deals with β-lactamase mutant R244S (Escherichia coli, UniProt P62593, R241S). It is filed as biochemical. The settings on record: number higher than 1 reflects a loss of potency against mutant. The protocol:
as §1, §2

The next assay has as its target β-lactamase mutant E104K (Escherichia coli, UniProt P62593, E102K). It is filed as biochemical. Particulars: number higher than 1 reflects a loss of potency against mutant. Here is the method:
as §1, §2

For assay [1], the target named is T1, TEM-1 β-lactamase (Escherichia coli, UniProt P62593). Kind of assay: TEM-1 β-lactamase inhibition assay (nitrocefin hydrolysis, 486 nm). It is filed as biochemical. The settings on record: Ki. The protocol:
as §1
(§3) The competitive inhibition of β-lactamase was determined spectrophotometrically using a Varian (Walnut Creek, Calif.) Cary 100 UV-Visible spectrophotometer. β-lactamase activity was followed by measuring the hydrolysis of nitrocefin, [3-(2,4-dinitrostyryl)-(6R, 7R)-7-(2-thienylacetamido)-ceph-3-em-4-carboxylic acid, E-isomer], (Calbiochem, San Diego, Calif.) at 486 nm. Inhibition assays were performed at 25° C. in 50 mM sodium phosphate, 5% DMSO, pH 7.0. […] Penicillin G (Sigma, St. Louis, Mo.) was also used as a substrate to determine KM and kcat.
(§4) Inhibitor was added to protein and incubated for ten minutes before the addition of substrate. Inhibition constants were determined by measuring the loss of P-lactamase activity with increasing inhibitor concentrations and fitting the data to standard equations for competitive inhibition.
(§5) These methods can also be used to express and assay recombinant TEM-1 variant of β-lactamase.

The target of assay [2] is T1, TEM-1 β-lactamase. Kind of assay: Isothermal titration calorimetry, binding to TEM-1 β-lactamase (Example 17). Particulars: ITC. The protocol: (§6) Isothermal titration calorimetry was performed on a high-precision VP-ITC titration calorimeter (Microcal Inc., Northampton, Mass.). β-Lactamase solutions were titrated with inhibitors in 50 mM sodium phosphate, 2% DMSO, pH 7.0, with β-lactamase concentrations ranging from 15 to 25 μM and inhibitor concentrations ranging from 300 to 1000 μM. The heat evolved from each injection was obtained by integrating the calorimetric signal. Heat of binding was obtained as the difference between the heat of reaction and the heat of inhibitor dilution. Data were analyzed using Origin 7.0 (OriginLab Corporation, Northampton, Mass.).
as §5
Also shown are the results obtained for β-lactamase variant TEM-1.
(In general: Isothermal titration calorimetry measures the heat released or taken up as one component is titrated into another.)

Assay [3] deals with T2, AmpC β-lactamase (Escherichia coli, UniProt P00811).
T2 construct: made in house; host or cells: E. coli BL21 (DE3)
Particulars: binding to AmpC; ITC. The protocol:
as §6
Isothermal titration calorimetry was undertaken to determine the thermodynamic characteristics of binding to AmpC β-lactamase.

Assay [4] has as its target T2, AmpC β-lactamase. Kind of assay: AmpC β-lactamase competitive inhibition assay (nitrocefin hydrolysis). It counts as biochemical. The protocol:
The gene for AmpC β-lactamase (accession number P00811) was obtained from Escherichia coli K12 strain W3110 (American Type Culture Collection, Rockville Md.). E. coli was grown and plasmid (F-lacIq lacPL8 ampC::lambdacI+) was isolated via Qiagen (Valencia, Calif.) mini prep. The gene for AmpC was amplified in two pieces via polymerase chain reaction, ligated and purified by agarose gel electrophoresis. The ligated gene was inserted into a pET200 vector via a TOPO reaction (Invitrogen, Carlsbad, Calif.).
BL21 (DE3) (Invitrogen) cells were transformed by heat-shock with the prepared plasmid. These cells were grown to an OD600 of 0.8 at 37° C. Isopropylthiogalactoside (IPTG) was added to 1 mM, incubation temperature decreased to 25° C. and the cells were grown for an additional 18 hours. After 18 hours, the E. coli was pelleted by centrifugation, and discarded. The growth media was concentrated and dialyzed versus 100 mM Tris, pH 7.0. This solution was run through an equilibrated Q-resin column, and washed with excess 100 mM Tris, pH 7.0.
as §3, §4

Setting [5] is: 25° C., 50 mM sodium phosphate, 5% DMSO, pH 7.0, enzyme 5 nM, nitrocefin 167 μM.

Turning to `CC1(C)[C@H](C(=O)O)N2C(=O)C[C@H]2S1(=O)=O` [Sulbactam, sulbactam, reference compound], at β-lactamase mutant M69I, the “Loss of potency: ratio of the inhibitory constant between mutant and wild type (Potencywt/Potencymutant), M69I” value is 15. In addition, the “Loss of potency: ratio of the inhibitory constant between mutant and wild type (Potencywt/Potencymutant), R244S” value at β-lactamase mutant R244S is on record as 93. Also, at β-lactamase mutant E104K, the “Loss of potency: ratio of the inhibitory constant between mutant and wild type (Potencywt/Potencymutant), E104K” value worked out at 1.

A word on the Ki: it is a dissociation constant, usually derived from enzyme kinetics or from competition with a known ligand. Read a low Ki as higher affinity. With `CCOC(=O)c1ccccc1OC(=O)c1cc(B(O)O)cc([N+](=O)[O-])c1` [Compound (1i), 3-(2-Ethoxycarbonyl-phenoxycarbonyl)-5-nitrophenylboronic acid], at TEM-1 β-lactamase [1] (setting [5]), the Ki came out at 101 ± 4 µM. On β-lactamase mutant M69I, the “Loss of potency: ratio of the inhibitory constant between mutant and wild type (Potencywt/Potencymutant), M69I” value was determined as 0.50. In addition, on β-lactamase mutant R244S, the “Loss of potency: ratio of the inhibitory constant between mutant and wild type (Potencywt/Potencymutant), R244S” value is on record as 0.34. The “Loss of potency: ratio of the inhibitory constant between mutant and wild type (Potencywt/Potencymutant), E104K” value on β-lactamase mutant E104K came to 0.36.

With `O=C(Oc1ccc2sc(=O)oc2c1)c1cc(B(O)O)cc([N+](=O)[O-])c1` [Compound (1f), 3-(2-OxO-benzo[1,3]oxathiol-6-oxycarbonyl)-5-nitrophenylboronic acid], the affinity on TEM-1 β-lactamase [1] (setting [5]), expressed as Ki, was 33 ± 4 µM. Besides, the “Loss of potency: ratio of the inhibitory constant between mutant and wild type (Potencywt/Potencymutant), M69I” value at β-lactamase mutant M69I turned out to be 0.47. In addition, at β-lactamase mutant R244S, the “Loss of potency: ratio of the inhibitory constant between mutant and wild type (Potencywt/Potencymutant), R244S” value is recorded as 0.42. In addition, the “Loss of potency: ratio of the inhibitory constant between mutant and wild type (Potencywt/Potencymutant), E104K” value at β-lactamase mutant E104K amounted to 0.37.

In the case of `O=C(O)[C@H]1/C(=C/CO)O[C@@H]2CC(=O)N21` [Clavulanic, clavulanic acid, reference compound], at β-lactamase mutant M69I, the “Loss of potency: ratio of the inhibitory constant between mutant and wild type (Potencywt/Potencymutant), M69I” value amounted to 163. The “Loss of potency: ratio of the inhibitory constant between mutant and wild type (Potencywt/Potencymutant), R244S” value on β-lactamase mutant R244S stood at 38. For the same molecule, on β-lactamase mutant E104K, the “Loss of potency: ratio of the inhibitory constant between mutant and wild type (Potencywt/Potencymutant), E104K” value is given as 0.67.

Regarding `O=C(Oc1c(Cl)c(Cl)c(OC(=O)c2cc(B(O)O)cc([N+](=O)[O-])c2)c(Cl)c1Cl)c1cc(B(O)O)cc([N+](=O)[O-])c1` [Compound (2c)], at TEM-1 β-lactamase [2], the ΔG is -5.814 kcal/mol, the ΔH is -1.648 kcal/mol and the “−TΔS” value was -4.166 kcal/mol. On TEM-1 β-lactamase [1] (TEM-1 β-lactamase), this molecule yielded a Ki of 6.7 µM. At AmpC β-lactamase [3], the ΔG was -7.115 kcal/mol, the ΔH is -0.473 kcal/mol and the “−TΔS” value was -6.642 kcal/mol. On AmpC β-lactamase [4], this molecule had a Ki of 3.68 µM.

Take `O=C(OCc1ccccc1COC(=O)c1cc(B(O)O)cc([N+](=O)[O-])c1)c1cc(B(O)O)cc([N+](=O)[O-])c1` [Compound (10a), 3-Borono-5-nitrobenzoic acid 1,2-benzenedimethanol ester]: on TEM-1 β-lactamase [2], the ΔG is -7.183 kcal/mol, the ΔH was -0.982 kcal/mol and the “−TΔS” value is -6.201 kcal/mol. In addition, the Ki at TEM-1 β-lactamase [1] (TEM-1 β-lactamase) stood at 9.7 µM. For the same molecule, at AmpC β-lactamase [3], the ΔG is -8.59 kcal/mol, the ΔH is -4.149 kcal/mol and the “−TΔS” value is -4.441 kcal/mol. In addition, the Ki at AmpC β-lactamase [4] was determined as 0.457 µM.

As to `CC(C)(C)c1cc(OC(=O)c2cc(B(O)O)cc([N+](=O)[O-])c2)ccc1OC(=O)c1cc(B(O)O)cc([N+](=O)[O-])c1` [Compound (2d)], at TEM-1 β-lactamase [2], the ΔG is -6.513 kcal/mol, the ΔH is -0.859 kcal/mol and the “−TΔS” value is -5.654 kcal/mol. At TEM-1 β-lactamase [1] (TEM-1 β-lactamase), the Ki was found to be 10.9 µM. For the same molecule, at AmpC β-lactamase [3], the ΔG was -7.098 kcal/mol, the ΔH is 0 kcal/mol and the “−TΔS” value was -7.098 kcal/mol. This molecule gave a Ki at AmpC β-lactamase [4] of 6.27 µM.

Turning to `C[C@]1(Cn2ccnn2)[C@H](C(=O)O)N2C(=O)C[C@H]2S1(=O)=O` [Tazobactam, tazobactam, reference compound], the “Loss of potency: ratio of the inhibitory constant between mutant and wild type (Potencywt/Potencymutant), M69I” value on β-lactamase mutant M69I was 31. Further, at β-lactamase mutant R244S, the “Loss of potency: ratio of the inhibitory constant between mutant and wild type (Potencywt/Potencymutant), R244S” value was 105. At β-lactamase mutant E104K, the “Loss of potency: ratio of the inhibitory constant between mutant and wild type (Potencywt/Potencymutant), E104K” value is 1.
